Measured values as given in US11524966B1 (Valo Early Discovery, Inc., priority 2017, dated 2022).
pIC50: −log10 of the molar value.

What follows are compounds tested against T1, USP28 (His-tagged USP28-FL-mammalian) (Homo sapiens, UniProt Q96RU2) (assay: Ubiquitin-Rhodamine 110 Assay for USP28 Activity, Example A-1(a)). Conditions: Ub-Rh110 assay, Example A-1(a); read-out: USP28 A-1(a) IC50 range.
T1 construct: Expression of USP28 (1-1077)-TEV-6*His (pTT5 vector); made in house; host or cells: Expi293f cells (pTT5 vector)
T1 sequence (Q96RU2 1-1077): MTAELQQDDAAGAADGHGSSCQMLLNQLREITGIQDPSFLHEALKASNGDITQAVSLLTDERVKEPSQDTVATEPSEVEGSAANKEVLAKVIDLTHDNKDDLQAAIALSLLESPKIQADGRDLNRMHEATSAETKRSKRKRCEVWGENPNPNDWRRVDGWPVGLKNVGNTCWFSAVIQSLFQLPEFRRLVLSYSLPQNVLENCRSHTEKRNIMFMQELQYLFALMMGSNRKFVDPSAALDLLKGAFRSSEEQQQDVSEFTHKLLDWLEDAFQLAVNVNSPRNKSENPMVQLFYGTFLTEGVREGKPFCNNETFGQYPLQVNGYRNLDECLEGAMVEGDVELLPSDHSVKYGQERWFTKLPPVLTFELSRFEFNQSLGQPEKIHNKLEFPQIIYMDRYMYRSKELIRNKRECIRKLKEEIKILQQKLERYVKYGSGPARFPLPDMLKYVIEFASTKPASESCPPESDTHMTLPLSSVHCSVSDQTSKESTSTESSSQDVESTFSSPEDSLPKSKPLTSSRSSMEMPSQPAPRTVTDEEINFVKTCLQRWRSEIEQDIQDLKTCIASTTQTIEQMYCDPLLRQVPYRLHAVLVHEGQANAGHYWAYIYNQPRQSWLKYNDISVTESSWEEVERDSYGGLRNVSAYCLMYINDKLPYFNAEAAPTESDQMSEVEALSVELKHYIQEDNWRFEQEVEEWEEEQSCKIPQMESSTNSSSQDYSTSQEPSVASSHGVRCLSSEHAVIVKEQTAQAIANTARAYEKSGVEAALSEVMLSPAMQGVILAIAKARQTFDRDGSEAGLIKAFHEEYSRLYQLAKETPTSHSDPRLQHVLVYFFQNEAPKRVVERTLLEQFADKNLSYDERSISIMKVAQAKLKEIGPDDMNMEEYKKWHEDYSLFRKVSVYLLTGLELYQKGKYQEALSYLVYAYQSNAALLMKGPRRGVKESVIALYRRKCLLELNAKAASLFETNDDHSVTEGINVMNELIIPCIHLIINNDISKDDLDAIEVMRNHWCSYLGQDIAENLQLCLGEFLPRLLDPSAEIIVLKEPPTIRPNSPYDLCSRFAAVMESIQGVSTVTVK
Assay type: biochemical
Summary of the method: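 Full-length His-tagged USP28 (1-1077, Expi293F-expressed; […]) was preincubated 30 min with compound (25 μM–1.3 nM, 10-point 3-fold) in 20 mM Tris-HCl pH 8.0, 3 mM BME, 0.03% BGG, 0.01% Triton X-100. Ub-Rh110 (25 nM) was then added for 45 min at room temperature, stopped with citric acid, and read by fluorescence (485/535 nm).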

SMILES	pIC50
Cc1cc(C(F)(F)F)c2c(N)c(C(=O)N[C@H]3COc4cc(N5CC6CNCC(C5)O6)ccc4C3)sc2n1 [Example 2-23, N-((3R)-7-(9-oxa-3,7-diazabicyclo[3.3.1]nonan-3-yl)chroman-3-yl)-3-amino-6-methyl-4-(trifluoromethyl)thieno[2,3-b]pyridine-2-carboxamide]	7.30 to 9.00
O=C(N[C@H]1COc2cc(N3CC4CCC(C3)N4)ccc2C1)c1cnc2c(c1)C1(CCN2)CC1 [Example 2-24, N-((3R)-7-(3,8-diazabicyclo[3.2.1]octan-3-yl)chroman-3-yl)-2′,3′-dihydro-1′H-spiro[cyclopropane-1,4′-[1,8]naphthyridine]-6′-carboxamide]	6.70 to 7.30
O=C(N[C@H]1COc2cc(N3CC4CCC(C3)N4)ccc2C1)c1ccc(NCc2ccccc2)nc1 [Example 2-25, N-((3R)-7-(3,8-diazabicyclo[3.2.1]octan-3-yl)chroman-3-yl)-6-(benzylamino)nicotinamide]	6.70 to 7.30
Cc1nc2sc(C(=O)N[C@H]3COc4cc(N5CC6CC(C5)N6)ccc4C3)c(N)c2s1 [Example 2-26, N-((3R)-7-(3,6-diazabicyclo[3.1.1]heptan-3-yl)chroman-3-yl)-6-amino-2-methylthieno[2,3-d]thiazole-5-carboxamide]	6.70 to 7.30
Cc1nc2sc(C(=O)N[C@H]3COc4cc(N5CC6CCCC(C5)N6)ccc4C3)c(N)c2s1 [Example 2-27]	7.30 to 9.00
Cc1nc2sc(C(=O)N[C@H]3COc4cc(N5CC6CNCC(C5)C6(F)F)ccc4C3)c(N)c2s1 [Example 2-28, 6-amino-N-((3R)-7-(9,9-difluoro-3,7-diazabicyclo[3.3.1]nonan-3-yl)chroman-3-yl)-2-methylthieno[2,3-d]thiazole-5-carboxamide]	7.30 to 9.00
CCn1ccc2cc(C(=O)N[C@H]3COc4cc(N5CC6CCCC(C5)N6)ccc4C3)nnc21 [Example 2-29, N-((3R)-7-(3,9-diazabicyclo[3.3.1]nonan-3-yl)chroman-3-yl)-7-ethyl-7H-pyrrolo[2,3-c]pyridazine-3-carboxamide]	6.70 to 7.30
CCn1ccc2cc(C(=O)N[C@H]3COc4cc(N5CC6CNCC(C5)C6(F)F)ccc4C3)cnc21 [Example 2-30, N-((3R)-7-(9,9-difluoro-3,7-diazabicyclo[3.3.1]nonan-3-yl)chroman-3-yl)-1-ethyl-1H-pyrrolo[2,3-b]pyridine-5-carboxamide]	7.30 to 9.00
Cc1cc(C)c2c(N)c(C(=O)N[C@H]3COc4c(C#N)c(N5CCNCC5)cc(F)c4C3)sc2n1 [Example 2-31, (R)-3-amino-N-(8-cyano-5-fluoro-7-(piperazin-1-yl)chroman-3-yl)-4,6-dimethylthieno[2,3-b]pyridine-2-carboxamide]	7.30 to 9.00
Cc1cc(C)c2c(N)c(C(=O)N[C@H]3COc4cc(N5CCNCC5)c(C#N)c(F)c4C3)sc2n1 [Example 2-32, (R)-3-amino-N-(6-cyano-5-fluoro-7-(piperazin-1-yl)chroman-3-yl)-4,6-dimethylthieno[2,3-b]pyridine-2-carboxamide]	7.30 to 9.00
Cc1ccc2c(N)c(C(=O)N[C@H]3COc4cc(N5CC6CNCC(C5)C6(F)F)c(C#N)cc4C3)sc2n1 [Example 2-33, 3-amino-N-((3R)-6-cyano-7-(9,9-difluoro-3,7-diazabicyclo[3.3.1]nonan-3-yl)chroman-3-yl)-6-methylthieno[2,3-b]pyridine-2-carboxamide]	7.30 to 9.00
[2H]C([2H])([2H])O[C@H]1CN(c2ccc3c(c2)OC[C@H](NC(=O)c2sc4nc(C)ccc4c2N)C3)C[C@@H]1N [Example 2-38, 3-amino-N-((R)-7-((3S,4S)-3-amino-4-(methoxy-d3)pyrrolidin-1-yl)chroman-3-yl)-6-methylthieno[2,3-b]pyridine-2-carboxamide]	6.70 to 7.30

Same assay, conditions: Ubiquitin-Rhodamine 110 assay, Example A-1(a); read-out: USP28 A-1(a) IC50 range

SMILES	pIC50
Cc1cnc2c(N)c(C(=O)N[C@H]3CCc4nc(N5CCNCC5)ccc4C3)sc2n1 [Example 23-6, 7-amino-3-methyl-N-[(6S)-2-(piperazin-1-yl)-5,6,7,8-tetrahydroquinolin-6-yl]thieno[2,3-b]pyrazine-6-carboxamide]	6.70 to 7.30
